From publication PMC4784888, “Activity Based High-Throughput Screening for Novel O-GlcNAc Transferase Substrates Using a Dynamic Peptide Microarray” (PLoS ONE, 2016)

Experiments:
[1] = tested on: OGT; conditions: known OGT inhibitor; ref [31]; read-out: reported IC50; cited from earlier work
Source text: Its interesting biology motivated us to further focus on the validation of RBL-2 O-GlcNAcylation in the following work. Kinetic signals of the GlcNAcylation were collected to fully understand the O-GlcNAcylation of RBL-2_420–422.

[2] = tested on: purified m-OGT; assay: Inhibition of RBL-2_410–422 O-GlcNAcylation by known OGT inhibitor on microarray; assay type: biochemical, human; conditions: 200 μM ST045849, purified m-OGT (0.2 μg/μL), 1 mM UDP-GlcNAc
Procedure: One step OGT purification was performed using His60 Ni Gravity Flow Columns (Clontech) according to the manufacturer’s instructions. Briefly, the nickel column was equilibrated with a buffer containing 50 mM sodium phosphate, 300 sodium chloride, 20 mM imidazole, and pH 7.4, followed by incubation with cell lysate containing His tag OGT for 1h at 4°C. After washing several times using buffer containing 50 mM sodium phosphate, 300 sodium chloride, 40 mM imidazole, and pH 7.4, the recombinant OGT was eluted using elution buffer containing 50 mM sodium phosphate, 300 mM sodium chloride, 300 mM imidazole, and pH 7.4. […]
(§1) Peptide O-GlcNAcylation was assessed using PamChip 4 microarray chips with a PamStation 12 instrument (Pamgene international, The Netherlands). […] O-GlcNAcylation of each peptide was detected by a fluorescent signal which was produced by an FITC conjugated antibody bound to the O-GlcNAc moiety on the peptide.
Image analysis was performed using BioNavigator 6 software (Pamgene international, The Netherlands). Briefly, each image was quantified by automated array grid finding and subsequent quantification of signal and local background for each individual spot. In this work, the signal median-minus-background value was used as the quantitative parameter for the O-GlcNAcylation of the peptide. […]

[3] = tested on: nc-OGT; assay: O-GlcNAcylation on kinase substrate peptide microarray, nc-OGT; assay type: biochemical, human; conditions: bacterial lysate containing nc-OGT (7 μg/μL), 1 mM UDP-GlcNAc, 50 mM Tris-HCl pH 7.5, 30°C, FITC antibody fluorescence, corrected for signal without UDP-GlcNAc
Procedure: (§2) Plasmids encoding s-OGT, m-OGT, and nc-OGT are generous gifts from John A. Hanover (National Institute of Health, USA). OGT overexpression was carried out as previously described. All the plasmids were transformed into E.coli BL21 (DE3) competent cells to produce a cell lysate containing OGT for use or for further purification. Briefly, inoculated a single colony into 50 ml of LB broth media containing 50 μg/ml ampicillin and cells were grown overnight at 37°C with vigorous shaking. 50 mL of the start culture was added into 1L LB broth media containing 50 μg/mL ampicillin and it was incubated with shaking at 200 rpm at 37°C until A600 reached 0.4–0.6. After the culture was cooled to room temperature, 0.5 mM IPTG was added into the culture to induce protein expression. After 16 hours, the cells were collected by centrifugation for 10 min at 4000 RPM at 4°C. The pellets were lysed in lysis buffer containing 20 mM Tris-HCl, pH 7.5, 1 mg/mL lysome, 0.1% triton x-100 and complete mini EDTA-free protease inhibitor cocktail on ice for 10 min and the lysate was sonicated until the DNA was completely sheared. After centrifugation for 10 min at 12000 rpm at 4°C, the supernatant was carefully transferred into a clean tube and was ready for the array assay or for further purification. Protein expression was determined by coomassie blue staining and western blotting using an anti-OGT antibody.
(§3) Peptide O-GlcNAcylation was assessed using PamChip 4 microarray chips with a PamStation 12 instrument (Pamgene international, The Netherlands). The OGT enzyme reaction was prepared essentially as described[26] with minor modifications. Briefly, before addition of the enzyme reaction, the microarray was blocked with blocking buffer (1% BSA in TBS). After 30 cycles (2 cycles/min) blocking, the blocking buffer was aspirated and the microarray was incubated with 40 μL of the enzyme reaction containing OGT (lysate or purified), OGT reaction buffer (50 mM Tris—HCl, pH 7.5;1 mM DTT;12.5 mM MgCl2), a 1:1 pre-incubated mixture of anti-O-GlcNAc and FITC conjugated secondary antibody, and the sugar donor UDP-GlcNAc or water as a control for 480 cycles (2 cycles/min) at 30°C. The microarray was run in parallel by pumping the reaction up and down through the porous membrane at every cycle and a tiff image was obtained at every 20 cycles by a CCD camera inside the PamStation. O-GlcNAcylation of each peptide was detected by a fluorescent signal which was produced by an FITC conjugated antibody bound to the O-GlcNAc moiety on the peptide.
(§4) Image analysis was performed using BioNavigator 6 software (Pamgene international, The Netherlands). Briefly, each image was quantified by automated array grid finding and subsequent quantification of signal and local background for each individual spot. In this work, the signal median-minus-background value was used as the quantitative parameter for the O-GlcNAcylation of the peptide.
(§5) Dynamic peptide microarray (PamChip) technology has been successfully and widely used for kinase activities profiling in the last decade. In the present work, we describe, for the first time, the utility of this peptide microarray format for the identification of human OGT activity. Due to the fact that O-GlcNAcylation and phosphorylation may occur at the same or proximal amino acids on the same protein [9], a peptide microarray of 144 peptides derived from different kinase substrates (S1 Appendix) was selected for an initial test. […] O-GlcNAcylation of peptides in each individual spot was detected by a fluorescent signal produced by the FITC labelled antibody recognizing the O-GlcNAcylated amino acids of converted peptides. Kinetic activity was measured through scanning the signal at regular intervals.
(§6) Fig 2 Identification of human OGT substrates from a kinase substrate and nuclear hormone receptor interaction peptide microarray. […]

[4] = tested on: purified m-OGT; assay: Ala scan of RBL-2_410–422 on peptide microarray; assay type: biochemical, human; conditions: microarray; 1 mM UDP-GlcNAc, 0.2 μg/μL purified m-OGT
Procedure: One step OGT purification was performed using His60 Ni Gravity Flow Columns (Clontech) according to the manufacturer’s instructions. Briefly, the nickel column was equilibrated with a buffer containing 50 mM sodium phosphate, 300 sodium chloride, 20 mM imidazole, and pH 7.4, followed by incubation with cell lysate containing His tag OGT for 1h at 4°C. After washing several times using buffer containing 50 mM sodium phosphate, 300 sodium chloride, 40 mM imidazole, and pH 7.4, the recombinant OGT was eluted using elution buffer containing 50 mM sodium phosphate, 300 mM sodium chloride, 300 mM imidazole, and pH 7.4. The eluted fraction was concentrated through a 100,000 Da molecular weight cut off Amicon unit by centrifugation 10 min at 5000 RPM at 4°C.
as §3, §4
Synthesis of all the peptides was achieved by following a standard Fmoc SPPS strategy on a Symphony Multiple Peptide Synthesizer and starting from rink amide resin. The following Fmoc amino acids were used: Fmoc-Cys(Trt)-OH, Fmoc-Gly-OH, Fmoc-Lys(Boc)-OH, Fmoc-Glu(Otbu)-OH, Fmoc-Asn(Trt)-OH, Fmoc-Ser(tBu)-OH, Fmoc-Thr(tBu)-OH, Fmoc-Ala-OH, Fmoc-Pro-OH, Fmoc-Val-OH. Deprotection was performed using 20% piperidine in DMF, and coupling was performed using 1:0.9:2 amino acid/ HBTU/DIPEA in DMF. After completion of the synthesis, the protected peptidyl resins were incubated with a 10 mL mixture of TFA (trifluoroacetic acid): H2O: triisopropylsilane (TIPS): 1, 2-ethanedithiol (EDT) (9:0.5:0.25:0.25, v/v/v/v) and allowed to stir for 2 h at room temperature under a nitrogen atmosphere. The cleaving mixture was filtered and the resin was washed with TFA (2 mL) and DCM (4 mL). The residue was precipitated by treatment of precooled diethyl ether and centrifugation. Two times washing and centrifugation yielded the crude products in a pellet. The precipitated peptides were dissolved in water, frozen, and lyophilized. All products were stored at -20°C. Crude peptide analysis was carried out by LC-MS.
To further confirm this and investigate the role of this and surrounding amino acid residues in our activity based assay, we resynthesized the RBL-2 peptide present on the microarray and performed an Ala scan, thus replacing of all the possible O-GlcNAc sites (Ser and Thr) in RBL-2_420–422 (Fig 4A). To immobilize the peptides on the chip, all the peptides were prepared with an extra CG at the NH2 terminal to allow immobilization on the maleimide-based chip surface. […]

[5] = tested on: m-OGT; assay: Validation of RBL-2 peptide O-GlcNAcylation on microarray, dependency on UDP-GlcNAc and m-OGT lysate; assay type: biochemical, human
Procedure: as §2, with “After 16 hours, the cells were collected by centrifugation for 10 min at 4000 RPM at 4°C. The pellets were lysed in lysis buffer containing 20 mM Tris-HCl, pH 7.5, 1 mg/mL lysome, 0.1% triton x-100 and complete mini EDTA-free protease inhibitor cocktail on ice for 10 min and the lysate was sonicated until the DNA was completely sheared.” left out
as §1, with “peptide. […]” for “peptide.”

[6] = tested on: m-OGT; assay: O-GlcNAcylation on kinase substrate peptide microarray, m-OGT; assay type: biochemical, human; conditions: bacterial lysate containing m-OGT (7 μg/μL), 1 mM UDP-GlcNAc, 50 mM Tris-HCl pH 7.5, 30°C, FITC antibody fluorescence, corrected for signal without UDP-GlcNAc
Procedure: as §2, §3, §4, §5, §6

[7] = tested on: OGT (s-OGT, m-OGT, nc-OGT); assay: O-GlcNAcylation on kinase substrate peptide microarray, three isoforms taken together; assay type: biochemical, human; conditions: for O-GlcNAcylation by all three isoforms OGT: kinase substrate microarray, bacterial lysates s-, m-, nc-OGT, 1 mM UDP-GlcNAc
Procedure: as §2, with “The pellets were lysed in lysis buffer containing 20 mM Tris-HCl, pH 7.5, 1 mg/mL lysome, 0.1% triton x-100 and complete mini EDTA-free protease inhibitor cocktail on ice for 10 min and the lysate was sonicated until the DNA was completely sheared.” left out
as §1, §4
Dynamic peptide microarray (PamChip) technology has been successfully and widely used for kinase activities profiling in the last decade. […] Kinetic activity was measured through scanning the signal at regular intervals. […]

[8] = tested on: s-OGT; assay: O-GlcNAcylation on kinase substrate peptide microarray, s-OGT; assay type: biochemical, human; conditions: bacterial lysate containing s-OGT (7 μg/μL), 1 mM UDP-GlcNAc, 50 mM Tris-HCl pH 7.5, 30°C, FITC antibody fluorescence, corrected for signal without UDP-GlcNAc
Procedure: as §2, §3, §4, §5, §6

[9] = target: T1, m-OGT (mitochondrial isoform of O-GlcNAc transferase) (human) (UniProt O15294)
T1 sequence: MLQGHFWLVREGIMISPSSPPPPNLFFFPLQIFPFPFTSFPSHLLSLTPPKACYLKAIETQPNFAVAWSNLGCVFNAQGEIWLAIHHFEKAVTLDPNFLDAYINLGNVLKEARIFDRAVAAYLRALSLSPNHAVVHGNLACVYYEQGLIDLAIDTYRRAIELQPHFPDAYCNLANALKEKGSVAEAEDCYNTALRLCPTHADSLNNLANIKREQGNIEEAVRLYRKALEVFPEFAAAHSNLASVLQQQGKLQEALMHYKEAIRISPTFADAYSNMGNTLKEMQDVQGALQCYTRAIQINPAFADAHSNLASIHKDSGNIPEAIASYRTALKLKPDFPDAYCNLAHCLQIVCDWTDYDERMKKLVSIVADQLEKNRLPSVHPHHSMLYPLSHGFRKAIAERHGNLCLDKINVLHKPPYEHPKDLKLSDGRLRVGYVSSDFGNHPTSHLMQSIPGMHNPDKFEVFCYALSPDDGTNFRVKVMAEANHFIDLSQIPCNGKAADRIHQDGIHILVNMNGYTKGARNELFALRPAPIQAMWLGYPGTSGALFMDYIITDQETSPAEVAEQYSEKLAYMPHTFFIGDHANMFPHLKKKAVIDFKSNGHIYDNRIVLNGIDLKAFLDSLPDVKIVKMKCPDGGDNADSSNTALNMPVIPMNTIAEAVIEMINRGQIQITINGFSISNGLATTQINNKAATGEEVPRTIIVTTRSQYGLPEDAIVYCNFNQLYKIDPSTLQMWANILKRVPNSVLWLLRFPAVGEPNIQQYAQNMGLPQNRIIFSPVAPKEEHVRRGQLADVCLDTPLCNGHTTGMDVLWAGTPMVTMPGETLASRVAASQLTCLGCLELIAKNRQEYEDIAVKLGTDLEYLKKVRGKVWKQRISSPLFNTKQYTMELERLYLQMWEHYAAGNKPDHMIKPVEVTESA

Molecule	OGT isoforms activity, nc [3]	OGT isoforms activity, m [6]	OGT isoforms activity, s [8]	O-GlcNAcylation by all three isoforms OGT [7]	further results
O=C(O)C1CC(=O)N(CCC23CC4CC(CC(C4)C2)C3)C(=Nc2ccc(Cl)cc2)S1 (stereo not shown) [ST045849, 3-(2-adamantanylethyl)-2-[(4-chlorophenyl)azamethylene]-4-oxo-1,3-thiazaperhyd roine-6-carboxylic acid]	–	–	–	–	IC50 [1]: ~50 µM; inhibition of RBL-2 peptide O-GlcNAcylation [2]: 80%
KENSPCVTPVSTA [RBL-2_410_422, kinase substrate microarray peptide …]	P (Signal greater than 5% of the highest signal was defined as positive (P))	P (Signal greater than 5% of the highest signal was defined as positive (P))	P (Signal greater than 5% of the highest signal was defined as positive (P))	–	OGT activity of wild type compared with C415A, microarray [4]: dramatic decrease of activity comparing with C415A peptide; O-GlcNAcylation versus amount of m-OGT lysate ([5]; bacterial lysate containing m-OGT 0, 1.7, 3.5, 7 μg/μL, 1 mM UDP-GlcNAc): increased with increasing amounts of bacterial lysate containing recombinant m-OGT; O-GlcNAcylation rate versus UDP-GlcNAc concentration ([5]; bacterial lysate containing m-OGT (7 μg/μL), UDP-GlcNAc 0–10 mM): increased upon the addition of increasing concentrations of the donor UDP-GlcNAc; Rank as hit in screening assay ([7]; peptide microarray screening): best hit in our screening assay
LSAFRRTSLAGGG [MYPC3_268_280, kinase substrate microarray peptide …]	P (Signal greater than 5% of the highest signal was defined as positive (P))	P (Signal greater than 5% of the highest signal was defined as positive (P))	P (Signal greater than 5% of the highest signal was defined as positive (P))	significantly O-GlcNAcylated by all three isoforms OGT	–
MLRGRSLSVTSLG [GYS2_1_13, kinase substrate microarray peptide …]	P (Signal greater than 5% of the highest signal was defined as positive (P))	P (Signal greater than 5% of the highest signal was defined as positive (P))	P (Signal greater than 5% of the highest signal was defined as positive (P))	significantly O-GlcNAcylated by all three isoforms OGT	–
RBL-2_410–422 T417A peptide (from UniProt Q08999 410-422)	–	–	–	–	O-GlcNAcylation of the peptide in solution, UDP-Glo assay (UDP formation) [9]: 20%
RBL-2_410–422 T421A peptide (from UniProt Q08999 410-422)	–	–	–	–	decrease of the O-GlcNAcylation of the immobilised peptide by purified m-OGT (0.2 μg/μL, 1 mM UDP-GlcNAc), peptide microarray, against the control peptide (wild type with C415A) [9]: 40%
